Format in all cases: physicochemical
Data set [1] in a line: Salt tolerance / solubility of surfactant solutions in DW, SW and FW. The settings on record: for Solubility and salt tolerance in DW, SW and FW: 10 wt % solutions in DW; for Solubility and salt tolerance in DW, SW and FW / Precipitation or phase separation of solutions in FW, SW and DW / Precipitation or phase separation in formation water (FIG. 5) / Precipitation or phase separation in seawater (FIG. 4): 90 days at 90° C.; for Solubility in simulated SW and FW: up to 90 days at 90° C. Here is the method:
10 wt % solutions of OPAC, OPAS, and OPAH were prepared in DW, SW, and FW and kept in the oven for 90 days at 90° C.

Data set [2] in a line: Thermogravimetric analysis (TGA), thermal stability. The settings on record: 20° C./min, nitrogen; for Thermal stability by TGA, stable up to: 30-500° C. How it is done: TGA graph was obtained using SDT Q600 machine (TA instrument) with continuous heating at 20° C./min. The heating range 30-500° C. with a stable flow of nitrogen at 100 mL/min.
A short description of data set [3]: Surface tension, force tensiometer with Wilhelmy plate. The note with it: water. How it is done:
Surface activities of OPAC, OPAS, and OPAH were determined using a force tensiometer with a platinum Wilhelmy plate (Sigma 702, Biolin Scientific). The test temperatures were 30° C. and 60° C. The plate was flushed with deionized water before heating it red hot to ensure it was properly cleaned. The surface tension of deionized water was measured three times to check if the cleanup procedure yielded repeatable results. The samples were covered to minimize evaporation, but with enough space to let the plate go through the covering during the measurement.
The surface tension data was used to estimate other properties using the following equations:
[formula] [formula] [formula] where cmc is critical micelle concentration, γ0 represents surface tension of water without surfactant, γcmc is surface tension at cmc, πcmc Represents the ability of the surfactant to reduce the surface tension, rmax is the maximum surface access, Avogadro number is represented by NA, dγ/dlnC is the slope, C represents the concentration of surfactant, temperature, and gas constant are represented by T and R, respectively, Amin is the minimum area per molecule, and the values of n is 1 for zwitterionic surfactants. Synthesis

Entries after “also recorded” stand apart in the source; their conditions may differ.

The values that follow come from US11866641B2, “Method for fracking subterranean geological formation with surfactant-containing fluid” (KING FAHD UNIVERSITY OF PETROLEUM AND MINERALS, priority 2019, dated 2024).

On to “Oleyl Polyoxyethylene Amidopropyl Hydroxy Sulfobetaine [OPAH]”, for which, in data set [1], the “Solubility and salt tolerance in DW, SW and FW” value (“Solubility and salt tolerance” below) was “compatible and soluble with all kinds of water; also recorded: excellent solubility”; the “Precipitation or phase separation of solutions in FW, SW and DW” value is “no precipitation or phase separation was detected”; the “Precipitation or phase separation in formation water (FIG. 5)” value is reported as “no signs of precipitation or phase separation”; the “Precipitation or phase separation in seawater (FIG. 4)” value is on record as “no signs of precipitation or phase separation”. Also, the “Solubility in simulated SW and FW” value in data set [1] was “soluble”. For the same substance, in data set [2], the “Thermal stability by TGA, stable up to” value was ~300 °C; the “Initial loss in weight (TGA; associated with water and solvent)” value (shortened to “Initial loss in weight”) is 29%; the “Temperature of big weight loss / decomposition temperature (TGA)” value was 307 °C. Further, in data set [3] (30° C.), the “Amin (minimum area per molecule)” value was determined as 0.62 nm^2, the cmc was found to be 7.1e-05 mol/L, the “Γmax × 10^6 (maximum surface excess)” value turned out to be 2.66 mol m^−2 and the “γcmc (surface tension at cmc)” value worked out at 36.89 mN m^−1. In addition, the “πcmc (ability to reduce the surface tension)” value in data set [3] (30° C.) is recorded as 34.96 mN/m. Moreover, in data set [3] (60° C.), the “Amin (minimum area per molecule)” value is listed as 0.71 nm^2, the cmc is 3.35e-05 mol/L, the “Γmax × 10^6 (maximum surface excess)” value stood at 2.33 mol m^−2 and the “γcmc (surface tension at cmc)” value worked out at 33.68 mN m^−1. In data set [3] (60° C.), the “πcmc (ability to reduce the surface tension)” value came to 38.07 mN/m.
Take “Oleyl Polyoxyethylene Amidopropyl Sulfobetaine [OPAS]”: in data set [1], the “Solubility and salt tolerance” value was “compatible and soluble with all kinds of water; also recorded: excellent solubility”; the “Precipitation or phase separation of solutions in FW, SW and DW” value is “no precipitation or phase separation was detected”; the “Precipitation or phase separation in formation water (FIG. 5)” value is recorded as “no signs of precipitation or phase separation”; the “Precipitation or phase separation in seawater (FIG. 4)” value is reported as “no signs of precipitation or phase separation”. Besides, the “Solubility in simulated SW and FW” value in data set [1] is given as “soluble”. Also, in data set [2], the “Thermal stability by TGA, stable up to” value is ~300 °C; the “Initial loss in weight” value was 25%; the “Temperature of big weight loss / decomposition temperature (TGA)” value was 295 °C. Besides, in data set [3] (30° C.), the “Amin (minimum area per molecule)” value was 0.77 nm^2, the cmc was 3.66e-05 mol/L, the “Γmax × 10^6 (maximum surface excess)” value turned out to be 2.15 mol m^−2 and the “γcmc (surface tension at cmc)” value is reported as 37.04 mN m^−1. In data set [3] (30° C.), the “πcmc (ability to reduce the surface tension)” value stood at 35.59 mN/m. Further, in data set [3] (60° C.), the “Amin (minimum area per molecule)” value came out at 1.01 nm^2, the cmc is 3.41e-05 mol/L, the “Γmax × 10^6 (maximum surface excess)” value is recorded as 1.64 mol m^−2 and the “γcmc (surface tension at cmc)” value turned out to be 33.74 mN m^−1. Also, the “πcmc (ability to reduce the surface tension)” value in data set [3] (60° C.) was 38.26 mN/m.
As to “Oleyl Polyoxyethylene Amindopropyl Carboxybetaine [OPAC]”, in data set [1], the “Solubility and salt tolerance” value is “compatible and soluble with all kinds of water; also recorded: excellent solubility”; the “Precipitation or phase separation of solutions in FW, SW and DW” value was “no precipitation or phase separation was detected”; the “Precipitation or phase separation in formation water (FIG. 5)” value is “no signs of precipitation or phase separation”; the “Precipitation or phase separation in seawater (FIG. 4)” value is “no signs of precipitation or phase separation”. The “Solubility in simulated SW and FW” value in data set [1] is recorded as “soluble”. Also, in data set [2], the “Thermal stability by TGA, stable up to” value was ~300 °C; the “Initial loss in weight” value stood at 30%; the “Temperature of big weight loss / decomposition temperature (TGA)” value is 312 °C. Further, in data set [3] (30° C.), the “Amin (minimum area per molecule)” value is recorded as 0.97 nm^2, the cmc is 0.000346 mol/L, the “Γmax × 10^6 (maximum surface excess)” value is listed as 1.70 mol m^−2 and the “γcmc (surface tension at cmc)” value worked out at 34.67 mN m^−1. Besides, in data set [3] (30° C.), the “πcmc (ability to reduce the surface tension)” value was found to be 37.33 mN/m. Moreover, in data set [3] (60° C.), the “Amin (minimum area per molecule)” value was found to be 1.04 nm^2, the cmc was 9.7e-05 mol/L, the “Γmax × 10^6 (maximum surface excess)” value came to 1.58 mol m^−2 and the “γcmc (surface tension at cmc)” value was determined as 32.24 mN m^−1. In addition, the “πcmc (ability to reduce the surface tension)” value in data set [3] (60° C.) was found to be 39.76 mN/m.
